From patent US6943022B2, “Inhibition of apoptosis by the expression of antisense RNA of caspase-3” (Korea Advanced Institute of Science and Technology, priority 2001, dated 2005)

Experiments:
[1] = system: recombinant CHO cells; assay type: cell-based
Description: The present inventors confirmed whether the expression of antisense RNA of caspase-3 could inhibit the NaBu-induced apoptosis. Particularly, control cells and B3 cells obtained in Example <1-1> were seeded at a concentration of 4×10^4 cells/ml in 6-well culture plates containing 5 ml of an alpha-minimum essential medium supplemented with 5% dialyzed fetal bovine serum and 0.32 μM of methotrexate. After three days of cultivation, the spent medium was replaced with fresh medium containing 0-5 mM of sodium butyrate. Cells were harvested periodically. Viable cells were distinguished from dead cells using the trypan blue dye exclusion method to determine cell viability. In addition, secreted humanized antibody concentration was measured by enzyme-linked immunosorbent assay (ELISA).

[2] = system: recombinant CHO cells; assay: LDH activity in culture supernatant (degree of cell lysis) after sodium butyrate; assay type: cell-based; details: control cells, first two days after addition of 5 mM sodium butyrate
Text: The integrity of protein product is influenced by the degree of cell lysis because some proteolytic enzymes and glycosidases released from the cellular membrane ruptured-dead cells influence the molecular integrity of the product (Goldman, et al., 1997, Cytotechnology, 23, 103-111; Hansen, et al., 1997, Cytotechnology, 24, 227-234; Teige, et al., 1994, J. Biotechnol., 34, 101-105). The amount of lysed cells can be determined by measuring the amount of lactate dehydrogenase (LDH) released into the culture supernatant (Cruz, et al., 2000, Biotechnol. Lett., 22, 677-682). Thus, to determine the degree of cell lysis, the LDH activity in culture supernatant was measured daily after treatment with 5 mM of sodium butyrate.

## CCCC(=O)[O-].[Na+] [sodium butyrate]
[1]; 0-5 mM sodium butyrate, control and B3 CHO cells
  cytotoxic effect on the cell growth: dose-dependent
[1]; 5 mM sodium butyrate
  cellular apoptosis: induced
[1]; three days after treatment with 5 mM sodium butyrate, control cells (null pcDNA3.1-zeo(+))
  viability of control cells: under 50%
[2]
  LDH activity in culture supernatant: increased rapidly
